Assay: log p, n-octanol/water partition coefficient by reverse phase HPLC (H2O/CH3CN)
Format: physicochemical
Conditions: n-octanol/water, pH 7.5

Row | chromatographic logP | Compound
1 | 6.44 | C=CCOc1ccc(-c2ccc(C3COC(c4ccccc4C)=N3)cc2)cc1CCC (stereo not drawn) [Example I-314]
2 | 3.77 | CCCc1cc(-c2ccc(C3COC(c4c(F)cccc4F)=N3)cc2)ccc1O (stereo not drawn) [II-1, 2-(2,6-Difluorophenyl)-4-(4-(4-hydroxy-3-n-propylphenyl)phenyl)-2-oxazoline]

Same assay, conditions: pH 7.5

Row | Compound | log p
3 | CCC(C)Oc1ccc(-c2ccc(C3COC(c4c(F)cccc4Cl)=N3)cc2)cc1Cl (stereo not drawn) [Example I-76] | log p: 5.69 (pH 7.5)
4 | CC(C)COc1ccc(-c2ccc(C3COC(c4c(F)cccc4Cl)=N3)cc2)cc1Cl (stereo not drawn) [Example I-77] | log p: 5.89 (pH 7.5)
5 | C=CCOc1ccc(-c2ccc(C3COC(c4c(F)cccc4Cl)=N3)cc2)cc1Cl (stereo not drawn) [Example I-80] | log p: 4.99 (pH 7.5)
6 | CCCCCCOc1ccc(-c2ccc(C3COC(c4c(F)cccc4Cl)=N3)cc2)cc1Cl (stereo not drawn) [Example I-83] | log p: 6.68 (pH 7.5)
7 | CCCc1cc(-c2ccc(C3COC(c4c(F)cccc4Cl)=N3)cc2)ccc1OC(C)C (stereo not drawn) [Example I-85] | log p: 6.20 (pH 7.5)
8 | CCCc1cc(-c2ccc(C3COC(c4c(F)cccc4Cl)=N3)cc2)ccc1OC(C)CC (stereo not drawn) [Example I-86] | log p: 6.62 (pH 7.5)
9 | CCCOc1ccc(-c2ccc(C3COC(c4ccccc4F)=N3)cc2)cc1Cl (stereo not drawn) [Example I-87] | log p: 5.22 (pH 7.5)
10 | CCC(C)Oc1ccc(-c2ccc(C3COC(c4ccccc4F)=N3)cc2)cc1Cl (stereo not drawn) [Example I-89] | log p: 5.49 (pH 7.5)
11 | CC(C)COc1ccc(-c2ccc(C3COC(c4ccccc4F)=N3)cc2)cc1Cl (stereo not drawn) [Example I-90] | log p: 5.70 (pH 7.5)
12 | CCCCCCOc1ccc(-c2ccc(C3COC(c4ccccc4F)=N3)cc2)cc1Cl (stereo not drawn) [Example I-96] | log p: 6.48 (pH 7.5)
13 | CCCc1cc(-c2ccc(C3COC(c4c(F)cccc4Cl)=N3)cc2)ccc1OCC(C)C (stereo not drawn) [Example I-104] | log p: 6.82 (pH 7.5)
14 | C=CCc1cc(-c2ccc(C3COC(c4c(F)cccc4F)=N3)cc2)cc(CC=C)c1OC(C)CC (stereo not drawn) [Example I-139] | log p: 6.39
15 | C=CCc1cc(-c2ccc(C3COC(c4ccccc4C)=N3)cc2)cc(Cl)c1OC(C)C (stereo not drawn) [Example I-146] | log p: 6.75 (pH 7.5)
16 | C=CCOc1ccc(-c2ccc(C3COC(c4ccccc4C)=N3)cc2)cc1Cl (stereo not drawn) [Example I-155] | log p: 5.47 (pH 7.5)
17 | C#CCOc1ccc(-c2ccc(C3COC(c4ccccc4C)=N3)cc2)cc1Cl (stereo not drawn) [Example I-156] | log p: 4.81 (pH 7.5)
18 | Cc1cc(-c2ccc(C3COC(c4c(F)cccc4Cl)=N3)cc2)ccc1OC(C)C (stereo not drawn) [Example I-163] | log p: 5.45

Row | Compound | log p
19 | CCC(C)Oc1ccc(-c2ccc(C3COC(c4c(F)cccc4Cl)=N3)cc2)cc1C (stereo not drawn) [Example I-165] | log p: 5.93
20 | C=CCc1cc(-c2ccc(C3COC(c4c(F)cccc4Cl)=N3)cc2)ccc1OCCC (stereo not drawn) [Example I-176] | log p: 5.98
21 | C=CCc1cc(-c2ccc(C3COC(c4c(F)cccc4Cl)=N3)cc2)ccc1OC(C)C (stereo not drawn) [Example I-177] | log p: 5.82
22 | C=CCc1cc(-c2ccc(C3COC(c4c(F)cccc4Cl)=N3)cc2)ccc1OCC(C)C (stereo not drawn) [Example I-178] | log p: 6.47
23 | C=CCc1cc(-c2ccc(C3COC(c4c(F)cccc4Cl)=N3)cc2)ccc1OC(C)CC (stereo not drawn) [Example I-179] | log p: 6.33
24 | C=CCOc1ccc(-c2ccc(C3COC(c4c(F)cccc4Cl)=N3)cc2)cc1CC=C (stereo not drawn) [Example I-181] | log p: 5.49
25 | C#CCOc1ccc(-c2ccc(C3COC(c4c(F)cccc4Cl)=N3)cc2)cc1CC=C (stereo not drawn) [Example I-182] | log p: 4.81
26 | Cc1cc(-c2ccc(C3COC(c4ccccc4F)=N3)cc2)ccc1OC(C)C (stereo not drawn) [Example I-190] | log p: 5.23
27 | Cc1cc(-c2ccc(C3COC(c4ccccc4F)=N3)cc2)ccc1OCC(C)C (stereo not drawn) [Example I-191] | log p: 5.89
28 | CCC(C)Oc1ccc(-c2ccc(C3COC(c4ccccc4F)=N3)cc2)cc1C (stereo not drawn) [Example I-192] | log p: 5.70
29 | C#CC(C)Oc1ccc(-c2ccc(C3COC(c4ccccc4F)=N3)cc2)cc1C (stereo not drawn) [Example I-196] | log p: 4.68
30 | CCCc1cc(-c2ccc(C3COC(c4ccccc4F)=N3)cc2)ccc1OC(C)C (stereo not drawn) [Example I-202] | log p: 6.03
31 | CCCc1cc(-c2ccc(C3COC(c4ccccc4F)=N3)cc2)ccc1OCC(C)C (stereo not drawn) [Example I-204] | log p: 6.61
32 | C#CC(C)Oc1ccc(-c2ccc(C3COC(c4ccccc4F)=N3)cc2)cc1CCC (stereo not drawn) [Example I-209] | log p: 5.32
33 | CCCOc1ccc(-c2ccc(C3COC(c4ccccc4F)=N3)cc2)cc1Cl (stereo not drawn) [Example I-216] | log p: 5.22

Next, values leading:

Row | log p | Compound
34 | log p: 5.70 | CC(C)COc1ccc(-c2ccc(C3COC(c4ccccc4F)=N3)cc2)cc1Cl (stereo not drawn) [Example I-217]
35 | log p: 5.49 | CCC(C)Oc1ccc(-c2ccc(C3COC(c4ccccc4F)=N3)cc2)cc1Cl (stereo not drawn) [Example I-218]
36 | log p: 6.48 | CCCCCCOc1ccc(-c2ccc(C3COC(c4ccccc4F)=N3)cc2)cc1Cl (stereo not drawn) [Example I-219]
37 | log p: 4.16 | C#CCOc1ccc(-c2ccc(C3COC(c4ccccc4F)=N3)cc2)cc1Cl (stereo not drawn) [Example I-221]
38 | log p: 4.58 | C#CC(C)Oc1ccc(-c2ccc(C3COC(c4ccccc4F)=N3)cc2)cc1Cl (stereo not drawn) [Example I-222]
39 | log p: 5.56 | Cc1cc(-c2ccc(C3COC(c4ccccc4Cl)=N3)cc2)ccc1OC(C)C (stereo not drawn) [Example I-229]
40 | log p: 6.35 | CCCc1cc(-c2ccc(C3COC(c4ccccc4Cl)=N3)cc2)ccc1OC(C)C (stereo not drawn) [Example I-240]
41 | log p: 5.93 | C=CCc1cc(-c2ccc(C3COC(c4ccccc4Cl)=N3)cc2)ccc1OC(C)C (stereo not drawn) [Example I-250]
42 | log p: 6.52 | C=CCc1cc(-c2ccc(C3COC(c4ccccc4Cl)=N3)cc2)ccc1OCC(C)C (stereo not drawn) [Example I-251]
43 | log p: 6.35 | C=CCc1cc(-c2ccc(C3COC(c4ccccc4Br)=N3)cc2)cc(Cl)c1OC(C)C (stereo not drawn) [Example I-281]
44 | log p: 7.36 | C=CCc1cc(-c2ccc(C3COC(c4ccccc4Br)=N3)cc2)cc(Cl)c1OCCCCCC (stereo not drawn) [Example I-282]
45 | log p: 6.05 | C=CCOc1c(Cl)cc(-c2ccc(C3COC(c4ccccc4Br)=N3)cc2)cc1CC=C (stereo not drawn) [Example I-283]
46 | log p: 5.37 | C#CCOc1c(Cl)cc(-c2ccc(C3COC(c4ccccc4Br)=N3)cc2)cc1CC=C (stereo not drawn) [Example I-284]
47 | log p: 6.02 | C=CCc1cc(-c2ccc(C3COC(c4ccccc4Br)=N3)cc2)ccc1OC(C)C (stereo not drawn) [Example I-291]
48 | log p: 5.66 | C=CCOc1ccc(-c2ccc(C3COC(c4ccccc4Br)=N3)cc2)cc1CC=C (stereo not drawn) [Example I-293]
49 | log p: 5.42 | CC(C)Oc1ccc(-c2ccc(C3COC(c4ccccc4Br)=N3)cc2)cc1Cl (stereo not drawn) [Example I-302]
50 | log p: 5.13 | C=CCOc1ccc(-c2ccc(C3COC(c4ccccc4Br)=N3)cc2)cc1Cl (stereo not drawn) [Example I-304]
51 | log p: 3.83 | C=CCc1cc(-c2ccc(C3COC(c4c(F)cccc4F)=N3)cc2)cc(C)c1O (stereo not drawn) [II-12]
52 | log p: 4.75 | C=CCc1cc(-c2ccc(C3COC(c4ccccc4C)=N3)cc2)cc(Cl)c1O (stereo not drawn) [II-14]
53 | log p: 4.14 | C=CCc1cc(-c2ccc(C3COC(c4ccccc4Cl)=N3)cc2)cc(C)c1O (stereo not drawn) [II-19]

Same assay, conditions: pH not given

Row | log p | Compound
54 | log p: 6.47 | CCCc1cc(-c2ccc(C3COC(c4ccccc4F)=N3)cc2)ccc1OC(C)CC (stereo not drawn) [Example I-205]
